Results reported in US20160046597A1, “RORC2 INHIBITORS AND METHODS OF USE THEREOF” (PFIZER INC., priority 2013, published 2016).

These compounds were tested against T1, RORC2 ligand binding domain (6-His-RORC2 LBD) (Homo sapiens, UniProt P51449) (assay: Co-activator recruitment by TR-FRET (RORC2 FRET)). Settings: 6.3 nM RORC2 LBD, 200 nM SRC1-2 coactivator peptide, 3 hours room temperature.
T1 construct: made in house; host or cells: E. coli
T1 sequence (P51449 269-508 limits assumed): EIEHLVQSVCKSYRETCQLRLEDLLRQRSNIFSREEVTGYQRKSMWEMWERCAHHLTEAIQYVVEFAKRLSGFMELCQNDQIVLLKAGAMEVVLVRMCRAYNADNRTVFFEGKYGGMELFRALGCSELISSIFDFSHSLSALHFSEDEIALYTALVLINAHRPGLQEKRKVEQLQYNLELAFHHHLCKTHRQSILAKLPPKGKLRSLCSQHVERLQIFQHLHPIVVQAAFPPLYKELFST
Assay type: biochemical
Source text: The activity of compound of the invention can be determined by a co-activator recruitment by TR-FRET (time-resolved fluorescence resonance energy transfer) assay. […] Due to the long lasting fluorescence emission of Europium, the non-specific, short-lived fluorescence is time-resolved (TR) from the fluorescence of interest. Inhibitors of the interaction of receptor and coactivator peptide are detected by a decrease in TR-FRET signal.
Specifically, in one embodiment the aforementioned assay was performed as outlined below. The assay was carried out in black polystyrene, 384-well plates in a total assay volume of 50.5 μL. The assay buffer contained 50 mM TRIS-HCL pH 7.5, 1 mM NaCl, 2 mM MgCl2, 0.5 mg/mL bovine serum albumin, and 5 mM dithiothreitol.
With `Cn1cc(C2CCN(C(=O)c3cscn3)CC2)c2cc(NC(=O)c3cc(C#N)ccn3)ccc21` [Example 18, 4-cyano-N-{1-methyl-3-[1-(1,3-thiazol-4-ylcarbonyl)piperidin-4-yl]-1H-indol-5-yl}pyridine-2-carboxamide] the IC50 was 26.1 nM.
In the case of `N#Cc1cccc(C(=O)Nc2ccc3[nH]cc(C4CCN(CC5CCCC5)CC4)c3c2)c1` [Example 87, 3-cyano-N-(3-(1-(cyclopentylmethyl)piperidin-4-yl)-1H-indol-5-yl)benzamide], the IC50 is reported as greater than 20000 nM.
Compound `Cn1cc(C2CCN(C(=O)[C@H]3CC[C@@H](O)CC3)CC2)c2cc(NC(=O)c3cccc(C#N)c3)ccc21` [Example 5, 3-cyano-N-(3-{1-[(cis-4-hydroxycyclohexyl)carbonyl]piperidin-4-yl}-1-methyl-1H-indol-5-yl)benzamide] has an IC50 of 106 nM.
With `Cn1cc(C2CCN(C(=O)C[C@@H](O)C(F)(F)F)CC2)c2cc(NS(=O)(=O)c3ccc(F)cc3)ccc21` [Example 91, (R)-4-fluoro-N-(1-methyl-3-(1-(4,4,4-trifluoro-3-hydroxybutanoyl)piperidin-4-yl)-1H-indol-5-yl)benzenesulfonamide] the IC50 was 9.8 nM.
`Cc1c(NC(=O)c2cccc(C#N)c2)ccc2c1c(C1CCN(C(=O)C[C@@H](O)C(F)(F)F)CC1)cn2C` [Example 89, (R)-3-cyano-N-(1,4-dimethyl-3-(1-(4,4,4-trifluoro-3-hydroxybutanoyl)-piperidin-4-yl)-1H-indol-5-yl)benzamide] gave an IC50 of 14.2 nM.
`O=C(O)c1cccc(C(=O)Nc2ccc3[nH]cc(C4CCN(C(=O)C5CCCC5)CC4)c3c2)c1` [Example 48, 3-({3-[1-(cyclopentylcarbonyl)piperidin-4-yl]-1H-indol-5-yl}carbamoyl)benzoic acid] gave an IC50 of 211 nM.
Work on `Cn1cc(C2CCN(C(=O)C3CC3(F)F)CC2)c2cc(NC(=O)c3cc(C#N)ccn3)ccc21` (centres unmarked) [Example 32, 4-cyano-N-(3-{1-[(2,2-difluorocyclopropyl)carbonyl]piperidin-4-yl}-1-methyl-1H-indol-5-yl)pyridine-2-carboxamide] yielded an IC50 of 35.5 nM.
For `Cn1cc(C2CCN(C(=O)c3cnccn3)CC2)c2cc(NC(=O)c3cc(C#N)ccn3)ccc21` [Example 26, 4-cyano-N-{1-methyl-3-[1-(pyrazin-2-ylcarbonyl)piperidin-4-yl]-1H-indol-5-yl}pyridine-2-carboxamide], the IC50 was 87 nM.
Compound `Cn1cc(C2CCN(C(=O)C(C)(C)CO)CC2)c2cc(NC(=O)c3cc(C#N)ccn3)ccc21` [Example 22, 4-cyano-N-{3-[1-(3-hydroxy-2,2-dimethylpropanoyl)piperidin-4-yl]-1-methyl-1H-indol-5-yl}pyridine-2-carboxamide] has an IC50 of 384 nM.
For `Cn1cc(C2CCN(C(=O)C3CCCC3)CC2)c2cc(NS(=O)(=O)c3cccnc3)ccc21` [Example 76, N-{3-[1-(cyclopentylcarbonyl)piperidin-4-yl]-1-methyl-1H-indol-5-yl}pyridine-3-sulfonamide], the IC50 was 22.9 nM.
`Cn1cc(C2CCN(C(=O)[C@H]3CC[C@H](O)CC3)CC2)c2cc(NC(=O)c3cc(C#N)ccn3)ccc21` [Example 27, 4-cyano-N-(3-{1-[(trans-4-hydroxycyclohexyl)carbonyl]piperidin-4-yl}-1-methyl-1H-indol-5-yl)pyridine-2-carboxamide] showed an IC50 of 1420 nM.
Work on `Cn1cc(C2CCN(C(=O)[C@H]3CCC[C@H]3O)CC2)c2cc(NC(=O)c3cc(C#N)ccn3)ccc21` (relative stereo) [Example 13, 4-cyano-N-[3-(1-{[(1S*,2R*)-2-hydroxycyclopentyl]carbonyl}piperidin-4-yl)-1-methyl-1 2-carboxamide] yielded an IC50 of 19.8 nM.
Compound `NC(=O)c1cccc(C(=O)Nc2ccc3[nH]cc(C4CCN(C(=O)C5CCCC5)CC4)c3c2)c1` [Example 50, N-{3-[1-(cyclopentylcarbonyl)piperidin-4-yl]-1H-indol-5-yl}isophthalamide] has an IC50 of 1430 nM.
`O=C(Nc1ccc2[nH]cc(C3CCN(C(=O)C4CCCC4)CC3)c2c1)c1ccc2scnc2c1` [Example 43, N-{3-[1-(cyclopentylcarbonyl)piperidin-4-yl]-1H-indol-5-yl}-1,3-benzothiazole-5-carboxamide] gave an IC50 of 1030 nM.
Compound `N#Cc1cccc(C(=O)Nc2ccc3cnn(C4CCN(C(=O)C5CCCC5)CC4)c3c2)c1` [Example 84, 3-cyano-N-(1-(1-(cyclopentanecarbonyl)piperidin-4-yl)-1H-indazol-6-yl)benzamide] has an IC50 of 214 nM.
For `Cn1cc(C2CCN(C(=O)C3CCCC3)CC2)c2cc(NC(=O)N3CCOC(C#N)C3)ccc21` (centres unmarked) [Example 62, 2-cyano-N-{3-[1-(cyclopentylcarbonyl)piperidin-4-yl]-1-methyl-1H-indol-5-yl}morpholine-4-carboxamide], the IC50 was 425 nM.
`Cn1cc(C2CCN(C(=O)C3CCCC3)CC2)c2cc(NS(=O)(=O)C3CC3)ccc21` [Example 72, N-{3-[1-(cyclopentylcarbonyl)piperidin-4-yl]-1-methyl-1H-indol-5-yl}cyclopropanesulfonamide] showed an IC50 of 128 nM.
In the case of `Cn1nccc1C(=O)N1CCC(c2cn(C)c3ccc(NC(=O)c4cc(C#N)ccn4)cc23)CC1` [Example 11, 4-cyano-N-(1-methyl-3-{1-[(1-methyl-1H-pyrazol-5-yl)carbonyl]piperidin-4-yl}-1H-indol-5-yl)pyridine-2-carboxamide], the IC50 is reported as 34.6 nM.
For `Cn1cc(C2CCN(C(=O)C3CCCC3)CC2)c2cc(NS(=O)(=O)c3cccc(C#N)c3)ccc21` [Example 67, 3-cyano-N-{3-[1-(cyclopentylcarbonyl)piperidin-4-yl]-1-methyl-1H-indol-5-yl}benzenesulfonamide], the IC50 was 11.4 nM.
`Cn1cc(C2CCN(C(=O)CC(F)(F)F)CC2)c2cc(NC(=O)c3cc(C#N)ccn3)ccc21` [Example 35, 4-cyano-N-{1-methyl-3-[1-(3,3,3-trifluoropropanoyl)piperidin-4-yl]-1H-indol-5-yl}pyridine-2-carboxamide] was tested, and the IC50 was 21.6 nM.
Work on `N#Cc1ccc(F)c(C(=O)Nc2ccc3[nH]cc(C4CCN(C(=O)C5CCCC5)CC4)c3c2)c1` [Example 41, 5-cyano-N-{3-[1-(cyclopentylcarbonyl)piperidin-4-yl]-1H-indol-5-yl}-2-fluorobenzamide] yielded an IC50 of 327 nM.
With `Cn1cc(C2CCN(C(=O)C3CCCO3)CC2)c2cc(NC(=O)c3cc(C#N)ccn3)ccc21` (centres unmarked) [Example 25, 4-cyano-N-{1-methyl-3-[1-(tetrahydrofuran-2-ylcarbonyl)piperidin-4-yl]-1H-indol-5-yl}pyridine-2-carboxamide] the IC50 was 31.6 nM.
`CC(C)C(O)C(=O)N1CCC(c2cn(C)c3ccc(NC(=O)c4cc(C#N)ccn4)cc23)CC1` (centres unmarked) [Example 28, 4-cyano-N-{3-[1-(2-hydroxy-3-methylbutanoyl)piperidin-4-yl]-1-methyl-1H-indol-5-yl}pyridine-2-carboxamide] was tested, and the IC50 was 88.1 nM.
`Cc1c(NC(=O)c2cccc(C#N)c2)cnc2c1c(C1CCN(C(=O)C[C@@H](O)C(F)(F)F)CC1)cn2C` [Example 95, (R)-3-Cyano-N-(1,4-dimethyl-3-(1-(4,4,4-trifluoro-3-hydroxybutanoyl)piperidin-4-yl)-1H-pyrrolo[2,3-b]pyridin-5-yl)benzamide] gave an IC50 of 46.8 nM.
Work on `Cn1cc(C2CCN(C(=O)C3CCCC3)CC2)c2cc(NS(=O)(=O)Cc3ccccc3)ccc21` [Example 77, N-{3-[1-(cyclopentylcarbonyl)piperidin-4-yl]-1-methyl-1H-indol-5-yl}-1-phenylmethanesulfonamide] yielded an IC50 of 50.5 nM.
In the case of `O=C(Nc1ccc2[nH]cc(C3CCN(C(=O)C4CCCC4)CC3)c2c1)c1ccc(CO)cc1` [Example 45, N-{3-[1-(cyclopentylcarbonyl)piperidin-4-yl]-1H-indol-5-yl}-4-(hydroxymethyl)benzamide], the IC50 is reported as 3460 nM.
Work on `CC(C)C(=O)N1CCC(c2cn(C)c3ccc(NS(=O)(=O)c4ccc(F)cc4)cc23)CC1` [Example 92, 4-fluoro-N-(3-(1-isobutyrylpiperidin-4-yl)-1-methyl-1H-indol-5-yl)benzenesulfonamide] yielded an IC50 of 10.5 nM.
For `COc1ccc(C(=O)Nc2ccc3[nH]cc(C4CCN(C(=O)C5CCCC5)CC4)c3c2)nc1` [Example 42, N-{3-[1-(cyclopentylcarbonyl)piperidin-4-yl]-1H-indol-5-yl}-5-methoxypyridine-2-carboxamide], the IC50 was 953 nM.
For `Cn1cc(C2CCN(C(=O)C3CC(F)(F)C3)CC2)c2cc(NC(=O)c3cc(C#N)ccn3)ccc21` [Example 9, 4-cyano-N-(3-{1-[(3,3-difluorocyclobutyl)carbonyl]piperidin-4-yl}-1-methyl-1H-indol-5-yl)pyridine-2-carboxamide], the IC50 was 8.7 nM.
In the case of `Cn1cc(C2CCN(C(=O)CC3CCOCC3)CC2)c2cc(NC(=O)c3cc(C#N)ccn3)ccc21` [Example 12, 4-cyano-N-{1-methyl-3-[1-(tetrahydro-2H-pyran-4-ylacetyl)piperidin-4-yl]-1H-indol-5-yl}pyridine-2-carboxamide], the IC50 is reported as 24.3 nM.
With `Cn1cc(C2CCN(C(=O)C3CCCC3)CC2)c2cc(NC(=O)N3CC(C#N)C3)ccc21` [Example 63, 3-cyano-N-{3-[1-(cyclopentylcarbonyl)piperidin-4-yl]-1-methyl-1H-indol-5-yl}azetidine-1-carboxamide] the IC50 was 193 nM.
Work on `Cn1cc(C2CCN(C(=O)C34CC(C3)C4)CC2)c2cc(NC(=O)c3cc(C#N)ccn3)ccc21` [Example 31, N-{3[1-(bicyclo[1.1.1]pent-1-ylcarbonyl)piperidin-4-yl]-1-methyl-1H-indol-5-yl}-4-cyanopyridine-2-carboxamide] yielded an IC50 of 121 nM.
